Consider 53 compounds from patent US20250304571A1, “BIOLOGICALLY ACTIVE COMPOUNDS AND METHODS THEREOF” (Suzhou Keen Therapeutics Co., Ltd., priority 2022, published 2025).

pIC50: −log10 of the molar value. Read-outs that look alike come from different tables or passages of the source.

The test system of the assay is 786-O (renal cell carcinoma) cells. Kind of assay: Cell viability (CellTiter Glo) assay, inhibition of 786-O cell proliferation. It counts as cell-based. The conditions noted are these: Homo sapiens, read-out: IC50, inhibition of 786-O cell proliferation. (In general: ATP-based viability assays read luminescence as a measure of living cells.)
The mark [1] stands for this setting: 786-0, 786-O cells, 72 hours, CellTiter Glo.

For the compound `CNc1nc(COC(=N)N2CCC[C@H]2C(F)(F)F)nc2c1C(C)(C)CN2c1ccc(N2CCOCC2)cc1OC` [Compound E107], the pIC50 under setting [1] was over 7.00.
For the compound `CNc1nc(COC(=N)N2CCC[C@H]2C(F)(F)F)nc2c1C(C)(C)C(=O)N2c1ccc(N2CCOCC2)cc1` [Compound E108], the pIC50 under setting [1] is over 7.00.
On the same count and under the same terms, the value for `CCN(CC(F)(F)F)C(=N)OCc1nc(NC)c2c(n1)N(c1ccc(N3CCOCC3)cc1)C(=O)C2(C)C` [Compound E109] was over 7.00.
On the same count and under the same terms, the value for `N=C(OCc1nc(NC2CC2)c2c(n1)N(c1cnc(N3CCOCC3)nc1)C(=O)C21CCCC1)N1CCC[C@@H]1C(F)(F)F` [Compound E111] was over 7.00; that for `N=C(OCc1nc(NC2CC2)c2c(n1)N(c1cnc(N3CCC(F)(F)CC3)nc1)C(=O)C21CCCC1)N1CCC[C@@H]1C(F)(F)F` [Compound E112] was over 7.00; that for `CNc1nc(COC(=N)N2CCCC2C(F)(F)F)nc2c1C(C)(C)C(=O)N2c1ccc(N2C[C@@H](C)O[C@@H](C)C2)nc1` (some centres unmarked) [Compound E113] was over 7.00.
As to `CNc1nc(COC(=N)N2CCC[C@@H]2C(F)(F)F)nc2c1C(C)(C)C(=O)N2c1ccc(N2CCOCC2)cc1` [Compound E114], under setting [1], the pIC50 is over 7.00.
On the same count and under the same terms, the value for `CNc1nc(COC(=N)N2CC(F)(F)C[C@H]2C)nc2c1C(C)(C)C(=O)N2c1ccc(N2C[C@@H](C)O[C@@H](C)C2)nc1` [Compound E115] was 6.30 to 7.00.
As for `CNc1nc(COC(=N)N2CC(F)(F)C[C@@H]2C)nc2c1C(C)(C)C(=O)N2c1ccc(N2C[C@@H](C)O[C@@H](C)C2)nc1` [Compound E116], the pIC50 under setting [1] was 6.30 to 7.00.
`CC1(C)C(=O)N(c2ccc(N3CCOCC3)cc2)c2nc(COC(=N)N3CCC[C@@H]3C(F)(F)F)nc(N)c21` [Compound E117]: under setting [1], the pIC50 was over 7.00.
Still for that read-out and setting: the result for `N=C(OCc1ncc2c(n1)N(c1cnc(N3CCC(F)(F)CC3)nc1)C(=O)C21CCCC1)N1CCC[C@@H]1C(F)(F)F` [Compound E118] reads over 7.00.
In the case of `N=C(OCc1ncc(C2CCCO2)c(Nc2ccc(Oc3ccccc3)cc2)n1)N1CCCCC1C(F)(F)F` (centres unmarked) [Compound E119], the pIC50 under setting [1] was over 7.00.
`CC(C)N(CC(F)(F)F)C(=N)OCc1ncc(C2=CCOCC2)c(Nc2ccc(N3CCOCC3)nc2)n1` [Compound E120]: under setting [1], the pIC50 was 5.30 to 6.30.
The same measure, in the same setting: the result for `CC1(C)CN(c2ccc(Oc3ccccc3)cc2)c2nc(COC(=N)N3CCCC34CCOCC4)ncc21` [Compound E121] reads 5.30 to 6.30; that for `N=C(OCc1nc(N)nc(Nc2ccc(Oc3ccccc3)cc2)n1)N1CCCC12CCOCC2` [Compound E122], 5.30 to 6.30.
Same read-out and setting: the result for `CC(C)N(CC(F)(F)F)C(=N)OCc1ncc(C2CCOCC2)c(Nc2ccc(N3CCOCC3)nc2)n1` [Compound E124] reads under 5.30.
Take `CC(C)N(CC(F)(F)F)C(=N)OCc1ncc2c(n1)N(c1ccc(Oc3ccccc3)cc1)CCO2` [Compound E125]: for the setting “786-0, 72 h”, the pIC50 is 5.30 to 6.30.
On the same count and under the same terms, the value for `CC(C)N(CC(F)(F)F)C(=N)OCc1ncc2c(n1)N(c1ccc(OC3CCCCC3)nc1)CCO2` [Compound E126] was 5.30 to 6.30.
For `CC(C)N(CC(F)(F)F)C(=N)OCc1ncc2c(n1)N(c1ccc(OC3CCCCC3)nc1)CC2(C)C` [Compound E127], the pIC50 under setting [1] was 6.30 to 7.00.
Turning to `CCC(CC)Oc1ccc(N2CC(C)(C)c3cnc(COC(=N)N(CC(F)(F)F)C(C)C)nc32)nc1` [Compound E128], the pIC50 under setting [1] is 6.30 to 7.00.
With `CC(C)N(CC(F)(F)F)C(=N)OCc1ncc2c(n1)N(c1ccc(N3CCOCC3)nc1)CC2(C)C` [Compound E129], the pIC50 under setting [1] was 6.30 to 7.00.
On the same count and under the same terms, the result for `CC(C)Oc1cnc(COC(=N)N(CC(F)(F)F)C(C)C)nc1Nc1ccc(Oc2ccccc2)cc1` [Compound E131] reads 6.30 to 7.00; that for `CC(C)N(CC(F)(F)F)C(=N)OCc1ncc2c(n1)N(c1ccc(OC3CCCC3)nc1)C(=O)C21CC1` [Compound E132], 6.30 to 7.00; that for `CC(C)Oc1ccc(N2C(=O)C3(CC3)c3cnc(COC(=N)N(CC(F)(F)F)C(C)C)nc32)cn1` [Compound E133], 5.30 to 6.30.
In the case of `CC(C)N(CC(F)(F)F)C(=N)OCc1ncc2c(n1)N(C1CCC(Oc3ccccn3)CC1)C(=O)C21CC1` (centres unmarked) [Compound E134], the pIC50 under setting [1] is 5.30 to 6.30.
As for `CC(C)N(CC(F)(F)F)C(=N)OCc1ncc2c(n1)N(c1ccc(OC3CCCCC3)cn1)CC2(C)C` [Compound E135], under setting [1], the pIC50 is 5.30 to 6.30.
On the same count and under the same terms, the value for `CN(CC(F)(F)F)C(=N)OCc1ncc2c(n1)N(c1ccc(Oc3ccccc3)cc1)CC2(C)C` [Compound E136] was over 7.00; that for `CC(C)N(CC(F)(F)F)C(=N)OCc1ncc2c(n1)N(c1ccc(Oc3ccccc3)cc1)CC21CC1` [Compound E137] was over 7.00.
Consider `CC(C)N(CC(F)(F)F)C(=N)OCc1ncc(C(C)(C)O)c(Nc2ccc(Oc3ccccc3)cc2)n1` [Compound E138], for which the pIC50 under setting [1] was 6.30 to 7.00.
Still for that read-out and setting: the result for `CC(C)N(CC(F)(F)F)C(=N)OCc1ncc2c(n1)N(c1ccc(OC3CC3)nc1)C(=O)C21CC1` [Compound E139] reads 5.30 to 6.30.
Consider `CN1CCN=C1OCc1ncc2c(n1)N(c1ccc(Oc3ccccc3)cc1)CC2(C)C` [Compound E140], for which the pIC50 (786-0, 72 h) was 5.30 to 6.30.
As to `CC(C)N(CC(F)(F)F)C(=N)OCc1ncc2c(n1)N(c1ccc(N3CCOCC3)nc1)CC21CC1` [Compound E141], under setting [1], the pIC50 is 6.30 to 7.00.
Consider `CC(C)N(CC(F)(F)F)C(=N)OCc1ncc2c(n1)N(c1cccc(Oc3ccccc3)c1)CC21CC1` [Compound E142], for which the pIC50 under setting [1] was 5.30 to 6.30.
Still for that read-out and setting: the result for `CC(C)N(CC(F)(F)F)C(=N)OCc1ncc2c(n1)N(c1ccccc1Oc1ccccc1)CC21CC1` [Compound E143] reads 6.30 to 7.00.
Same read-out and setting: the result for `CC(C)N(CC(F)(F)F)C(=N)OCc1ncc2c(n1)N(c1cccc(OC3CCOCC3)c1)CC21CC1` [Compound E144] reads 5.30 to 6.30.
Turning to `CC(C)N(CC(F)(F)F)C(=N)OCc1ncc2c(n1)N(c1ccc(OC3CCOCC3)cc1)CC21CC1` [Compound E145], the pIC50 under setting [1] is 6.30 to 7.00.
Same read-out and setting: the result for `N=C(OCc1ncc2c(n1)N(c1ccc(OC3CCOCC3)nc1)CC21CC1)N1CC(F)(F)C1` [Compound E146] reads 5.30 to 6.30.
Take `CN(C)C(=N)OCc1ncc2c(n1)N(c1ccc(OC3CCOCC3)nc1)CC21CC1` [Compound E147]: the pIC50 (786-0, 72 h) was under 5.30.
With `CC(C)N(CC(F)(F)F)C(=N)OCc1ncc2c(n1)N(c1ccc(N3CCOCC3)nc1)C(=O)CC2` [Compound E148, 1-isopropyl-2-[[8-(6-morpholino-3-pyridyl)-7-oxo-5,6-dihydropyrido[2,3-d]pyrimidin-2-yl]methyl]-1-(2,2,2-trifluoroethyl)isourea], the pIC50 under setting [1] was under 5.30.
With `CC(C)N(CC(F)(F)F)C(=N)OCc1ncc2c(n1)N(c1ccc(N3CCOCC3)nc1)C(=O)C21CC1` [Compound E149], the pIC50 under setting [1] is 5.30 to 6.30.
Still for that read-out and setting: the result for `CC(C)N(CC(F)(F)F)C(=N)OCc1ncc2c(n1)N(c1ccc(N3CCCCC3)nc1)C(=O)C21CC1` [Compound E150] reads 6.30 to 7.00.
The same measure, in the same setting: the result for `CN1CCCN=C1OCc1ncc2c(n1)N(c1ccc(Oc3ccccc3)cc1)CC2(C)C` [Compound E151, 5,5-dimethyl-2-(((1-methyl-1,4,5,6-tetrahydropyrimidin-2-yl)oxy)methyl)-7-(4-phenoxyphenyl)-6,7-dihydro-5H-pyrrolo[2,3-d]pyrimidine] reads under 5.30.
As to `CNc1nc(COC(=N)N2CCCC2C(F)(F)F)nc2c1C(C)(C)C(=O)N2c1ccc(N2CCOCC2)cc1` (centres unmarked) [Compound E152, [5,5-dimethyl-4-(methylamino)-7-(4-morpholinophenyl)-6-oxo-pyrrolo[2,3-d]pyrimidin-2 yl]methyl 2-(trifluoromethyl)pyrrolidine-1-carboximidate], the pIC50 under setting [1] is over 7.00.
The same measure, in the same setting: the value for `CNc1nc(COC(=N)N2CCCCC2C(F)(F)F)nc2c1C(C)(C)C(=O)N2c1ccc(N2CCOCC2)cc1` (centres unmarked) [Compound E153] was over 7.00.
Same read-out and setting: the value for `[2H]C([2H])(OC(=N)N(CC(F)(F)F)C(C)C)c1nc(N)c2c(n1)N(c1ccc(OC3CCCCC3)cc1)CC2(C)C` [Compound E154, ethyl (4-amino-7-(4-(cyclohexyloxy)phenyl)-5,5-dimethyl-6,7-dihydro-5H-pyrrolo[2,3-d]pyrimidin-2-yl)methyl-d2 isopropyl(2,2,2-trifluoroethyl)carbamimidate] was over 7.00; that for `[2H]C([2H])(OC(=N)N1CCCCC1C(F)(F)F)c1nc(N)c2c(n1)N(c1ccc(OC3CCCCC3)cc1)CC2(C)C` (centres unmarked) [Compound E155] was over 7.00; that for `CC(C)N(CC(F)(F)F)C(=N)OCc1ncc(C2CCCCO2)c(Nc2ccc(N3CCOCC3)nc2)n1` (centres unmarked) [Compound E156, (4-((6-morpholinopyridin-3-yl)amino)-5-(tetrahydro-2H-pyran-2-yl)pyrimidin-2-yl)methyl isopropyl] was 5.30 to 6.30.
Same read-out and setting: the result for `CC(C)N(CC(F)(F)F)C(=N)OCc1ncc2c(n1)N(c1ccc(N3CCOCC3)cc1)C(=O)C21CCOCC1` [Compound E157, (7′-(4-morpholinophenyl)-6′-oxo-2,3,5,6,6′,7′-hexahydrospiro[pyran-4,5′-pyrrolo[2,3-d]pyrimidin]-2′-yl)methyl isopropyl(2,2,2-trifluoroethyl)carbamimidate] reads under 5.30.
Turning to `CC(C)N(CC(F)(F)F)C(=N)OCc1nc(Cl)c2c(n1)N(c1ccc(OC3CCCCC3)nc1)C(=O)C2(C)C` [Compound E158, (4-chloro-7-(6-(cyclohexyloxy)pyridin-3-yl)-5,5-dimethyl-6-oxo-6,7-dihydro-5H-pyrrolo[2,3-d]pyrimidin-2-yl)methyl isopropyl(2,2,2-trifluoroethyl)carbamimidate], the pIC50 under setting [1] was 5.30 to 6.30.
Still for that read-out and setting: the result for `CC(C)N(CC(F)(F)F)C(=N)OCc1ncc2c(n1)N(c1ccc(C3CCCCC3)cc1)C(=O)C21CC1` [Compound E159] reads 6.30 to 7.00; that for `CC(C)N(CC(F)(F)F)C(=N)OCc1ncc2c(n1)N(c1ccc(C3CCCCC3)nc1)C(=O)C21CC1` [Compound E160], 5.30 to 6.30.
Turning to `CCCCOc1ccc(N2C(=O)C3(CC3)c3cnc(COC(=N)N(CC(F)(F)F)C(C)C)nc32)cc1` [Compound E161], the pIC50 under setting [1] was 6.30 to 7.00.
The same measure, in the same setting: the result for `CC(C)N(CC(F)(F)F)C(=N)OCc1ncc2c(n1)N(c1ccc(N3CCOCC3)cc1)C(=O)C21CC1` [Compound E162] reads 5.30 to 6.30.
